Assay results as given in patent publication US10842779B2, “Heterocyclic compounds and their use in preventing or treating bacterial infections” (priority 2015, dated 2020).
Like-named read-outs stand apart in the source and are kept apart here.

Key:
[1] = molecular target: T1, KPC-2 (Klebsiella pneumoniae, UniProt Q9F663); assay: β-Lactamase inhibitory activity, nitrocefin hydrolysis; assay type: biochemical; settings: class (A); 30 min pre-incubation
T1 construct: made in house; host or cells: E. coli

[2] = molecular target: CMY-37 (Citrobacter freundii); assay: as above; assay type: biochemical
[3] = molecular target: T2, OXA-11 (Pseudomonas aeruginosa, UniProt Q06778); assay: as above; assay type: biochemical
T2 construct: made in house; host or cells: E. coli

[4] = molecular target: T3, TEM-1 (Escherichia coli, UniProt P62593); assay: as above; assay type: biochemical; settings: class (A); 30 min pre-incubation
T3 construct: made in house; host or cells: E. coli

[5] = molecular target: AmpC (P99) (Enterobacter cloacae, UniProt P05364); assay: biochemical
Procedure: (§1) Method 1: β-Lactamase Inhibitory Activity, Determination of IC50 (Table 1)
(§2) Enzyme activity was monitored by spectrophotometric measurement of nitrocefin (NCF-TOKU-E, N005) hydrolysis at 485 nm, at room temperature and in assay buffer A: 100 mM Phosphate pH7, 2% glycerol and 0.1 mg/mL Bovine serum albumin (Sigma, B4287). Enzymes were cloned in E. coli expression vector, expressed and purified in house using classical procedures. To a transparent polystyrene plate (Corning, 3628) were added in each well 5 μL DMSO or inhibitor dilutions in DMSO and 80 μL enzyme in buffer A. Plates were immediately read at 485 nm in a microplate spectrophotometer (BioTek, PowerWave HT) to enable background subtraction. After 30 min of pre-incubation at room temperature, 15 μL of NCF (200 μM final) were finally added in each well. Final enzyme concentrations were 0.1 nM (TEM-1), 0.075 nM (SHV-1), 0.4 nM (CTX-M-15), 1 nM (KPC-2), 0.2 nM (P99 AmpC), 0.2 nM (CMY-37), 0.4 nM (AmpC P. aeruginosa), 0.2 nM (OXA-1), 1.2 nM (OXA-11), 0.4 nM (OXA-15) and 0.3 nM (OXA-48). After 20 min incubation at room temperature, plates were once again read at 485 nm. Enzyme activity was obtained by subtracting the final signal by the background, and was converted to enzyme inhibition using non inhibited wells. IC50 curves were fitted to a classical Langmuir equilibrium model with Hill slope using XLFIT (IDBS).

[6] = molecular target: AmpC (PAE) (Pseudomonas aeruginosa, UniProt P24735); assay: biochemical
Procedure: as §1, §2

[7] = test system: P. aeruginosa; assay: Synergy with ceftazidime: MIC of ceftazidime at fixed concentration of compound; assay type: cell-based; settings: Pseudomonas aeruginosa, read-out: MIC of CAZ + compound (4 μg/mL)
Procedure: (§3) Method 2: MIC of Compounds and Synergy with Ceftazidime Against Bacterial Isolates (Table 2 and 3)
(§4) Compounds of the present invention were assessed against genotyped bacterial strains alone or in combination with the β-lactam ceftazidime. In the assays, MICs of said compounds, or of ceftazidime at fixed concentrations of said compounds were determined by the broth microdilution method according to the Clinical Laboratory Standards Institute (CLSI—M7-A7). Briefly, compounds alone according to the invention were prepared in DMSO and spotted (2 μL each) on sterile polystyrene plates (Corning, 3788). Compounds and ceftazidime dilutions were prepared in DMSO and spotted (1 μL each) on sterile polystyrene plates (Corning, 3788). Log phase bacterial suspensions were adjusted to a final density of 5×10^5 cfu/mL in cation-adjusted Mueller-Hinton broth (Beckton-Dickinson) and added to each well (98 μL). Microplates were incubated for 16-20 h at 35° C. in ambient air. The MIC of the compounds was defined as the lowest concentration of said compounds that prevented bacterial growth as read by visual inspection. The MIC of ceftazidime at each compound concentration was defined as the lowest concentration of ceftazidime that prevented bacterial growth as read by visual inspection.

[8] = test system: K. oxytoca; assay: as above; assay type: cell-based; settings: Klebsiella oxytoca, read-out: MIC of CAZ + compound (4 μg/mL)
Procedure: as §3, §4

[9] = test system: C. murliniae; assay: as above; assay type: cell-based; settings: CMU 210102; beta-lactamases VIM-4; read-out: MIC of CAZ + compound (4 μg/mL)
Procedure: as §3, §4

[10] = test system: C. freundii; assay: as above; assay type: cell-based; settings: Citrobacter freundii; CFR UFR10; beta-lactamases OXA-48; read-out: MIC of CAZ + compound (4 μg/mL)
Procedure: as §3, §4

[11] = test system: E. aerogenes; assay: as above; assay type: cell-based; settings: Klebsiella aerogenes; EAE 200261; beta-lactamases TEM-x AmpC; read-out: MIC of CAZ + compound (4 μg/mL)
Procedure: as §3, §4

[12] = test system: E. cloacae; assay: as above; assay type: cell-based; settings: Enterobacter cloacae
Procedure: as §3, §4

[13] = test system: M. morganii; assay: as above; assay type: cell-based; settings: Morganella morganii, read-out: MIC of CAZ + compound (4 μg/mL)
Procedure: as §3, §4

[14] = test system: K. pneumoniae; assay: as above; assay type: cell-based; settings: Klebsiella pneumoniae
Procedure: as §3, §4

[15] = test system: P. mirabilis; assay: as above; assay type: cell-based; settings: Proteus mirabilis; PMI UFR82; beta-lactamases CMY-2; read-out: MIC of CAZ + compound (4 μg/mL)
Procedure: as §3, §4

[16] = molecular target: T4, OXA-1 (Escherichia coli, UniProt P13661); assay: β-Lactamase inhibitory activity, nitrocefin hydrolysis; assay type: biochemical; settings: class (D); 30 min pre-incubation
T4 construct: made in house; host or cells: E. coli

[17] = molecular target: T5, SHV-1 (Klebsiella pneumoniae, UniProt P0AD64); assay: as above; assay type: biochemical
T5 construct: made in house; host or cells: E. coli

O=C(O)C(F)(F)F.O=C1N2C[C@H](c3scnc3[C@H]2c2ncc[nH]2)N1OS(=O)(=O)[O-].[Na+] (relative stereo) [Example 1, Sodium and 2,2,2-trifluoroacetate [trans-7-(1H-imidazol-3-ium-2-yl)-9-oxo-3-thia-5,8,10-triaza-tricyclo[6.2.1.0^2,6]undeca-2(6),4-dien-10-yl]sulfate]
IC50 [1]: 4.2 nM | IC50 [2]: 0.63 nM | IC50 [3]: 410 nM | IC50 [4]: 12 nM | IC50 [5]: 0.37 nM | IC50 [6]: 17 nM | MIC ([7]; PAE CIP107051, beta-lactamases TEM-24): 8 µg/mL | MIC ([7]; PAE MUS, beta-lactamases OXA-20 OXA-18): 8 µg/mL | MIC [8]: < 0.25 µg/mL | MIC [9]: < 0.25 µg/mL | MIC [10]: < 0.25 µg/mL | MIC [11]: < 0.25 µg/mL | MIC ([12]; ECL 2185D, beta-lactamases OXA-163, read-out: MIC of CAZ + compound (4 μg/mL)): 1 µg/mL | MIC ([12]; ECL 190310, beta-lactamases AmpC, read-out: MIC of CAZ + compound (4 μg/mL)): < 0.25 µg/mL | MIC ([12]; ECL 200138, beta-lactamases AmpC, read-out: MIC of CAZ + compound (4 μg/mL)): 8 µg/mL | MIC ([12]; ECL 260033, beta-lactamases AmpC, read-out: MIC of CAZ + compound (4 μg/mL)): 4 µg/mL | MIC ([12]; ECL 260323, beta-lactamases AmpC, read-out: MIC of CAZ + compound (4 μg/mL)): < 0.25 µg/mL | MIC ([12]; ECL HAN, beta-lactamases OXA-35, read-out: MIC of CAZ + compound (4 μg/mL)): 2 µg/mL | MIC ([12]; ECL NEM146383, beta-lactamases AmpC, read-out: MIC of CAZ + compound (4 μg/mL)): < 0.25 µg/mL | MIC ([12]; ECL P99, beta-lactamases AmpC, read-out: MIC of CAZ + compound (4 μg/mL)): < 0.25 µg/mL | MIC ([12]; ECL UFR12, beta-lactamases CTX-M-9 OXA-48, read-out: MIC of CAZ + compound (4 μg/mL)): < 0.25 µg/mL | MIC ([12]; ECL UFR38, beta-lactamases CTX-M-15 NDM-1, read-out: MIC of CAZ + compound (4 μg/mL)): < 0.25 µg/mL | MIC ([12]; ECL UFR51, beta-lactamases SHV-12 IMP-8, read-out: MIC of CAZ + compound (4 μg/mL)): < 0.25 µg/mL | MIC ([12]; read-out: MIC of CAZ + compound (4 μg/mL), ECL UFR84, beta-lactamases TEM-1 AmpC OXA-1): ≤ 0.25 µg/mL | MIC [13]: ≤ 0.25 µg/mL | MIC ([14]; BAA1898, read-out: MIC of CAZ + compound (4 μg/mL), KPN BAA-1898, beta-lactamases TEM-1, SHV-11, SHV-12 KPC-2): 0.5 µg/mL | MIC ([14]; KPN 700603, beta-lactamases SHV-18 OXA-2, read-out: MIC of CAZ + compound (4 μg/mL)): < 0.25 µg/mL | MIC ([14]; KPN LIB, beta-lactamases SHV-11 OXA-48, read-out: MIC of CAZ + compound (4 μg/mL)): < 0.25 µg/mL | MIC ([14]; KPN UFR42, beta-lactamases SHV-2, CTX-M-15 OXA-1 OXA-181 NDM-1, read-out: MIC of CAZ + compound (4 μg/mL)): < 0.25 µg/mL | MIC ([14]; KPN UFR43, beta-lactamases SHV-11, CTX-M-15 CMY-2 OXA-1 NDM-1, read-out: MIC of CAZ + compound (4 μg/mL)): ≤ 0.25 µg/mL | MIC ([14]; KPN UFR77, beta-lactamases CMY-2, read-out: MIC of CAZ + compound (4 μg/mL)): < 0.25 µg/mL | MIC ([14]; KPN UFR79, beta-lactamases DHA-1 OXA-1, read-out: MIC of CAZ + compound (4 μg/mL)): < 0.25 µg/mL | MIC ([14]; KPN UFR80, beta-lactamases SHV-11 DHA-1 OXA-1, read-out: MIC of CAZ + compound (4 μg/mL)): < 0.25 µg/mL | MIC ([14]; read-out: MIC of CAZ + compound (4 μg/mL), KPN 6299, beta-lactamases TEM-1, SHV-11 OXA-163): ≤ 0.125 µg/mL | MIC ([14]; read-out: MIC of CAZ + compound (4 μg/mL), KPN 260252, beta-lactamases TEM-1, SHV-11 KPC-3): > 128 µg/mL | MIC [15]: ≤ 0.25 µg/mL | IC50 [16]: 190 nM | IC50 [17]: 5.5 nM
